Test results as given in patent publication US6555062B1, “Reagent container for an automated analyzer” (Bayer Corporation, priority 1991, dated 2003).
Where “and” joins values, the source holds several entries; their conditions need not be identical. Equal entries are not always repeated.

Tests used:
[1] = tested on: T4 antiserum covalently coupled to the solid phase; test: Free thyroxine (FT4) competitive chemiluminescent immunoassay, specificity (% cross-reactivity); format: binding; conditions: FT4 assay, anti-T4 paramagnetic particles, 7.5 minutes at 37° C.
Procedure: A free thyroxine (FT4) assay has been developed for the above described automated analyzer. The FT4 assay is a competitive binding assay in which FT4 in a test sample competes with labeled T4 (tracer reagent) for a limited amount of T4 antiserum covalently coupled to the solid phase. In the preferred format of this assay acridinium ester is the label and paramagnetic particles serve as the solid phase. A test sample (25 uL.) acridinium ester labeled T4 (100 uL.) and anti-T4 paramagnetic particles (450 uL.) are dispensed by the analyzer into a cuvette and incubated for 7.5 minutes at 37° C. After incubation, magnetic separation and washes are performed as described prior to detection of the chemiluminescent signal. The amount of FT4 present in the test sample is determined by the level of the signed detected and is converted to a dose by a two-point data reduction algorithm.

[2] = tested on: prostate specific antigen (PSA) assay; test: PSA chemiluminescent immunoassay, interfering substances (endogenous compounds, chemotherapeutic agents); conditions: mean over three PSA levels
Procedure: A prostate specific antigen (PSA) assay has been developed for the above described automated analyzer. The PSA assay utilizes an anti-PSA antibody solid phase and a labeled anti-PSA antibody as a tracer reagent. […] A test sample (100 uL.), tracer reagent (50 uL.) and solid phase reagent (250 uL.) are dispersed into a cuvette by the analyzer and incubated for 7.5 minutes at 37° C. After the incubation, magnetic separation and washes are performed as described above prior to detection of the chemiluminescent signal.
All data presented was generated based on a two-point calibration off a standard curve consisting of eight points.

[3] = Digoxin immunoassay, interfering substances (NCCLS protocols); conditions: bilirubin 20, lipid 1,000, hemolysate 500 mg/dL
Procedure: A digoxin assay has been developed for the above described automated analyzer. The digoxin assay architecture is a hapten solid phase with a labeled antibody (tracer reagent). […] A test sample (150 uL.) and tracer reagent (50 uL.) are dispensed into a cuvette by the analyzer and incubated for 2.5 minutes at 37° C. The solid phase reagent (250 uL.) is then added to the cuvette followed by an additional incubation of 5.0 minutes. After the second incubation, magnetic separation and washes are performed as described above prior to detection of the chemiluminescent signal.
(§1) All data presented was generated based upon a two-point recalibration off an original master curve. The master curve was generated using eight standards with values ranging from zero to 6 ng/mL digoxin.

[4] = tested on: human chorionic gonadotropin (hCG) assay; test: hCG sandwich immunoassay, interfering substances (NCCLS protocols); conditions: bilirubin 20, lipid 1,000, hemolysate 500 mg/dL
Procedure: A human chorionic gonadotropin (hCG) assay has been developed for the above described automated analyzer. […] A test sample (50 uL.) and tracer reagent (100 uL.) are dispensed into a cuvette by the analyzer and incubated for 5.0 minutes at 37° C. The capture solid phase reagent (450 uL.) is then added to the cuvette followed by an additional incubation of 2.5 minutes. After the second incubation, magnetic separation and washes are performed as described above prior to detection of the chemiluminescent signal.
All data presented was generated based on a two-point calibration off a full standard master curve, consisting of ten standards. The standards, ranging from zero to 1000 mIU/mL., are calibrated against the WHO 1st 75/537 reference material.

[5] = tested on: monoclonal anti-digoxin antibody; test: Digoxin chemiluminescent immunoassay, specificity (cross-reactivity, effect on dose); format: binding; conditions: digoxin assay
Procedure: A digoxin assay has been developed for the above described automated analyzer. The digoxin assay architecture is a hapten solid phase with a labeled antibody (tracer reagent). In the preferred format of this assay, the tracer reagent is an acridinium ester labeled monoclonal anti-digoxin antibody; and the solid phase is paramagnetic particles to which digoxin-apoferritin has been immobilized. A test sample (150 uL.) and tracer reagent (50 uL.) are dispensed into a cuvette by the analyzer and incubated for 2.5 minutes at 37° C. The solid phase reagent (250 uL.) is then added to the cuvette followed by an additional incubation of 5.0 minutes. After the second incubation, magnetic separation and washes are performed as described above prior to detection of the chemiluminescent signal.
as §1
The test assay has a sensitivity of less than 0.1 ng/mL (minimum detectable dose defined as the 95% confidence limit at 0 ng/mL.) with a range of 0-5 ng/mL. The correlation of the automated test assay with a manual test assay (Magic^R Digoxin, Ciba Corning Diagnostics, Corp.) provided a slope of 1.00, an intercept of 0.08 and a correlation coefficient of 0.97 (N=130).

NC(Cc1ccc(Oc2cc(I)c(O)c(I)c2)c(I)c1)C(=O)O (centres unmarked) [Reverse triiodothyronine]
% Cross-Reactivity [1]: 3.1%

CC/C(=C(/CC)c1ccc(O)cc1)c1ccc(O)cc1 [Diethyl-Stilbesterol]
Spiked vs. Control, Mean +/− SD ([2]; chemotherapeutic agents): 101 +/− 5%

N[C@H](Cc1cc(I)c(Oc2cc(I)c(O)c(I)c2)c(I)c1)C(=O)O [D-thyroxine]
% Cross-Reactivity [1]: >64%

N[C@@H](Cc1cc(I)c(O)c(I)c1)C(=O)O [Diiodotyrosine]
% Cross-Reactivity [1]: <0.002%

Hemoglobin: endogenous interferent spiked into patient samples at 500 mg/dL
Spiked vs. Control, Mean +/− SD ([2]; endogenous interferents): 99 +/− 4%

Conjugated Bilirubin
Spiked vs. Control [3]: 106% and 99% | Spiked vs. Control, Mean +/− SD ([2]; endogenous interferents): 101 +/− 9% | Spiked vs. Control [4]: 102%

N[C@@H](Cc1cc(I)c(Oc2ccc(O)cc2)c(I)c1)C(=O)O [3,5-diiodo-L-thyronine]
% Cross-Reactivity [1]: <0.002%

C[C@@H]1O[C@@H](O[C@H]2C[C@@H](O)[C@]3(CO)[C@H]4[C@H](O)C[C@]5(C)[C@@H](C6=CC(=O)OC6)CC[C@]5(O)[C@@H]4CC[C@]3(O)C2)[C@H](O)[C@H](O)[C@H]1O [Ouabain]
% Cross-Reactivity [5]: 7.3%

C[C@H]1O[C@@H](O[C@H]2CC[C@@]3(C)[C@H](CC[C@@H]4[C@@H]3C[C@@H](O)[C@]3(C)[C@@H](C5=CC(=O)OC5)CC[C@]43O)C2)C[C@H](O)[C@@H]1O[C@H]1C[C@H](O)[C@H](O[C@H]2C[C@H](O)[C@H](O[C@@H]3O[C@H](CO)[C@@H](O)[C@H](O)[C@H]3O)[C@@H](C)O2)[C@@H](C)O1 [Deslanoside]
% Cross-Reactivity [5]: 94.6%

CC(=O)O[C@H]1C[C@H](O[C@H]2[C@@H](O)C[C@H](O[C@H]3[C@@H](O)C[C@H](O[C@H]4CC[C@@]5(C)[C@H](CC[C@@H]6[C@@H]5C[C@@H](O)[C@]5(C)[C@@H](C7=CC(=O)OC7)CC[C@]65O)C4)O[C@@H]3C)O[C@@H]2C)O[C@H](C)[C@H]1O[C@@H]1O[C@H](CO)[C@@H](O)[C@H](O)[C@H]1O [Lanatoside C]
% Cross-Reactivity [5]: 87.1%

O=P1(N(CCCl)CCCl)NCCCO1 (centres unmarked) [Cyclophosphamide]
Spiked vs. Control, Mean +/− SD ([2]; chemotherapeutic agents): 98 +/− 3%

N[C@@H](Cc1cc(I)c(Oc2ccc(O)c(I)c2)c(I)c1)C(=O)O [L-triiodothyronine]
% Cross-Reactivity [1]: 3.9%

N[C@@H](Cc1ccc(O)c(I)c1)C(=O)O [Monoiodotyrosine]
% Cross-Reactivity [1]: <0.002%

N[C@H](Cc1cc(I)c(Oc2ccc(O)c(I)c2)c(I)c1)C(=O)O [D-triiodothyronine]
% Cross-Reactivity [1]: 3.6%

CC(=O)O[C@]1(C(C)=O)CC[C@H]2[C@@H]3C=C(C)C4=CC(=O)CC[C@]4(C)[C@H]3CC[C@@]21C [Megestrol Acetate]
Spiked vs. Control, Mean +/− SD ([2]; chemotherapeutic agents): 101 +/− 5%

C[C@H]1O[C@@H](O[C@H]2[C@@H](O)C[C@H](O[C@H]3[C@@H](O)C[C@H](O[C@H]4CC[C@@]5(C)[C@H](CC[C@@H]6[C@@H]5CC[C@]5(C)[C@@H](C7=CC(=O)OC7)CC[C@]65O)C4)O[C@@H]3C)O[C@@H]2C)C[C@H](O)[C@@H]1O [Digitoxin]
% Cross-Reactivity [5]: 0.6%

CO[C@H]1[C@@H](O)C[C@H](O[C@H]2[C@@H](O)C[C@H](O[C@H]3[C@@H](O)C[C@H](O[C@H]4CC[C@@]5(C)[C@H](CC[C@@H]6[C@@H]5C[C@@H](O)[C@]5(C)[C@@H](C7=CC(=O)OC7)CC[C@]65O)C4)O[C@@H]3C)O[C@@H]2C)O[C@@H]1C [β-Methyldigoxin]
% Cross-Reactivity [5]: 109.4%

C=CC1=C(C)/C(=C/c2[nH]c(Cc3[nH]c(/C=C4\NC(=O)C(C)=C4C=C)c(C)c3CCC(=O)O)c(CCC(=O)O)c2C)NC1=O [Unconjug. Bilirubin]
Spiked vs. Control [3]: 105% and 99% | Spiked vs. Control, Mean +/− SD ([2]; endogenous interferents): 103 +/− 6% | Spiked vs. Control [4]: 106% and 98% and 103%

COc1cccc2c1C(=O)c1c(O)c3c(c(O)c1C2=O)C[C@@](O)(C(=O)CO)C[C@@H]3O[C@H]1C[C@H](N)[C@H](O)[C@H](C)O1 [Doxorubicin]
Spiked vs. Control, Mean +/− SD ([2]; chemotherapeutic agents): 100 +/− 3%
